By Ki is commonly meant the equilibrium dissociation constant of an inhibitor or competing ligand from its target.

Each structure is given as a SMILES string. Where two headings read alike, the source gives them in different places.

Results on five molecules are retold here after patent US20240390301A1, “COMBINATIONS OF PERIPHERAL 5-HT2A RECEPTOR ANTAGONISTS AND CENTRAL 5-HT2A RECEPTOR AGONISTS” (priority 2021, published 2024).

Data set [1] relates to DOPR-induced head twitch response (HTR). Nature of the data set: Blockade of DOPR-induced head twitch response (HTR) in rats. It is filed as in vivo, Sprague-Dawley rats. The conditions noted are these: for Attenuation of the HTR to DOPR (significance vs. vehicle): all doses tested, SC, Dunnett's multiple comparison test; for Mean HTR (SEM): 10 min before DOPR 0.32 mg/kg SC, HTRs counted for 20 min. The procedure:
FIG. 1 graphically depicts in a bar graph the effect of xylamidine pre-treatment on the HTR induced by DOPR in the rat. The indicated doses of xylamidine or vehicle were administered SC. followed 10 minutes later by DOPR (0.32 mg/kg, SC), and HTRs were counted for 20 minutes immediately after DOPR administration (10-30 min after administration of xylamidine). […] In FIG. 2, the effect of BW501C67 pre-treatment on the HTR induced by DOPR in the rat is depicted graphically in a bar graph. […] FIG. 4 graphically depicts in a bar graph the effect of sarpogrelate pre-treatment on the HTR induced by DOPR in the rat.
Animals. Adult male Sprague-Dawley rats aged 8 weeks (body weight ˜270 g) were used in these experiments. Animals were pair housed under controlled temperatures and 12-hour light/dark cycles (lights on between 07:00-19:00 h), with ad libitum food and water. The protocol was approved by the Eurofins Advinus Institutional Animal Care and Use Committee. This study was carried out in strict accordance with the recommendations in the Guide for the Care and Use of Laboratory Animals of the National Institutes of Health. All efforts were made to minimize suffering.
Drugs and Drug Administration. Test compounds were prepared as described above or commercially obtained. Drugs were dissolved in their respective vehicle solutions (see Table 4) and administered subcutaneously (SC) in a volume of 5 mL/kg (except for the experiment with sarpogrelate, where a volume of […] was used). […] The 5-HT2A receptor agonist DOPR was then administered at 1 dose (0.32 mg/kg, SC, in saline, calculated based on the free base) to all animals 10 min after pretreatment with the test peripheral antagonist or vehicle.
Procedure. Rats were administered one dose (0.01 to 100 mg/kg, SC, as indicated) of a test peripheral antagonist (or vehicle) 10 mins prior to administration of DOPR (0.32 mg/kg, SC). After administration of DOPR, rats were immediately placed into a small open field for behavioral observation.
Statistical analysis. The data points shown in Table 4 are the mean±standard error of the mean (SEM). Statistical comparisons were performed between each peripheral antagonist treatment group and its respective vehicle treatment group using Dunnett's multiple comparison test. Analysis was performed using GraphPad Prism 6.

Another data set can be described thus: in vivo. It is filed as in vivo, rat. The conditions noted are these: for Peripheral restriction / brain penetration: from free brain:free plasma ratios; for Kp at 0.167 h / Kp at 0.5 h: male, Sprague Dawley, rat, in vivo; for Kp at 0.167 h: read-out: Free Brain:Free Plasma (0.167 h); for Kp at 0.5 h: read-out: Free Brain:Free Plasma (0.5 h). As for the experimental part: The ratio of free brain concentration to free plasma concentration was calculated at 0.167 h and 0.5 h post administration for each compound using the data presented in the above examples and the following formula.
A smaller value for the free brain: free plasma ratio indicates greater peripheral restriction and therefore, better suitability for the methods of the present disclosure.

A further data set addresses T1, 5-HT2A receptor (Homo sapiens, UniProt P28223).
T1 construct: WuXi AppTec (Hong Kong) Limited (contract laboratory that ran the assay)
As to the kind of experiment: 5-HT2A radioligand binding with [3H]ketanserin. The procedure:
The binding affinities of key peripheral 5-HT2A receptor antagonists, as well as reference 5-HT2A agonists, at the ketanserin binding site of the 5-HT2A receptor and the mesulergine binding site of the 5-HT2C receptor were determined in radioligand binding experiments.
Method. Affinity of the test compounds for the 5-HT2A and 5-HT2C receptors was determined in radioligand binding experiments with [^3H] ketanserin and [^3H] mesulergine, respectively, by WuXi AppTec (Hong Kong) Limited, using methods adapted from the literature and under conditions described in Table 1.

A further data set addresses T2, 5-HT2C receptor (Homo sapiens, UniProt P28335).
T2 construct: WuXi AppTec (Hong Kong) Limited (contract laboratory that ran the assay)
T2 sequence (P28335 33-458): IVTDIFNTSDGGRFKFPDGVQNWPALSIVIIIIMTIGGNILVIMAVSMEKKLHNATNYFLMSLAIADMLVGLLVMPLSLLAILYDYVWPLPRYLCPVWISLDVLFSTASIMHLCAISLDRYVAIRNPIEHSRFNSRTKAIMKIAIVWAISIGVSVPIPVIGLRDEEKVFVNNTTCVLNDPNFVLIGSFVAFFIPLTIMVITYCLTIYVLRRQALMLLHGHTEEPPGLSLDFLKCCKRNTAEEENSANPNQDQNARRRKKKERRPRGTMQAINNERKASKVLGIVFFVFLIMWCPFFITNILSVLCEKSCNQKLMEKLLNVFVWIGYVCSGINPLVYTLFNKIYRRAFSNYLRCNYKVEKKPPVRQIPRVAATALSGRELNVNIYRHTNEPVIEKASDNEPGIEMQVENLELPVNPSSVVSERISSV
Nature of the data set: biochemical. It counts as binding. The conditions noted are these: HEK293 stable cell line, 2 nM [3H]mesulergine, 1 h, 25° C.; for Ki: read-out: 5-HT2C Ki (nM) ([3H]mesulergine).

[2] abbreviates: calculated using 10 mg/kg PK data.
Where [3] appears, read: HEK293 stable cell line, 1 nM [3H]ketanserin, 1 h, 25° C., read-out: 5-HT2A Ki (nM) ([3H]ketanserin).

T1 sequence (P28223 whole entry): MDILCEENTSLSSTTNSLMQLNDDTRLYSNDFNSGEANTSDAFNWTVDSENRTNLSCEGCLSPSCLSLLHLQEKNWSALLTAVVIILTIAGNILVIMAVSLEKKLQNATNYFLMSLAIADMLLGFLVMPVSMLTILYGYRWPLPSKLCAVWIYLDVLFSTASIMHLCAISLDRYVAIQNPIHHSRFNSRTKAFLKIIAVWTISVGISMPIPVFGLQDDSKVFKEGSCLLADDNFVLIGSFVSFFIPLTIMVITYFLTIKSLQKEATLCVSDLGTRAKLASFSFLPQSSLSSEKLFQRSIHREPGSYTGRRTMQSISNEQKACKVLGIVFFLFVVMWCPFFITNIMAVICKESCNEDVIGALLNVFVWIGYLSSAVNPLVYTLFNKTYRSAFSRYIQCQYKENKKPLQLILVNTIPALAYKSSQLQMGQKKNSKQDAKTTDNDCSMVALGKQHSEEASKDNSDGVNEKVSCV

As for `COc1cccc(CCc2ccccc2OCC(CN(C)C)OC(=O)CCC(=O)O)c1` (centres unmarked) [sarpogrelate], in data set [1], the “Attenuation of the HTR to DOPR (significance vs. vehicle)” value was “statistically significant attenuation of the HTR”. In addition, the “Mean HTR (SEM)” value turned out to be 2.33 in data set [1] (antagonist 1 mg/kg SC); 1.83 in data set [1] (antagonist 3 mg/kg SC); 1.33 in data set [1] (antagonist 10 mg/kg SC); 1.33 in data set [1] (antagonist 30 mg/kg SC); 0.33 in data set [1] (antagonist 100 mg/kg SC). For the same molecule, the “Peripheral restriction / brain penetration” value in “in vivo” is “substantial brain penetration”. Also, the Kp at 0.167 h in the data set “in vivo” (setting [2]) is 0.37. Further, in “in vivo” (setting [2]), the Kp at 0.5 h was 0.29.
Regarding `COc1cccc(OC(C)CNC(=N)Cc2cccc(C)c2)c1.O=C(O)C(F)(F)F` (centres unmarked) [xylamidine, N-(2-(3-methoxyphenoxy)propyl)-2-(m-tolyl) acetimidamide trifluoroacetate], in data set [1], the “Attenuation of the HTR to DOPR (significance vs. vehicle)” value is reported as “not statistically significant”. The “Mean HTR (SEM)” value in data set [1] (antagonist 0.01 mg/kg SC) is given as 7.33; in data set [1] (antagonist 0.1 mg/kg SC) it was 5.00; in data set [1] (antagonist 1 mg/kg SC) it was 3.17; in data set [1] (antagonist 10 mg/kg SC), 2.83. Moreover, the “Free Brain:Free Plasma (0.167 h)” value in “in vivo” (calculated using 1 mg/kg data) and in “in vivo” (setting [2]) was 0.018 throughout. The “Free Brain:Free Plasma (0.5 h)” value in the data set “in vivo” (calculated using 1 mg/kg data) is 0.052; in the data set “in vivo” (setting [2]) it was 0.018. In addition, the results for the inhibitory constant (Ki) at 5-HT2A receptor (setting [3]) and on 5-HT2C receptor were 0.55 nM and 1.45 nM, respectively. Moreover, the “5-HT2C Ki (nM) ([3H]mesulergine)” value on 5-HT2C receptor is “high affinity”.
As for `CC(C)COc1ccc(CNC(=O)N(Cc2ccc(F)cc2)C2CCN(C(=O)CC[C@H](N)C(=O)O)CC2)cc1` [Compound 14a, (S)-2-amino-5-(4-(1-(4-fluorobenzyl)-3-(4-isobutoxybenzyl)ureido)piperidin-1-yl)-5-oxopentanoic acid], the “Attenuation of the HTR to DOPR (significance vs. vehicle)” value in data set [1] is recorded as “statistically significant attenuation of the HTR”. In addition, the “Mean HTR (SEM)” value was found to be 2.50 in data set [1] (antagonist 0.01 mg/kg SC), 2.00 in data set [1] (antagonist 0.1 mg/kg SC), 2.17 in data set [1] (antagonist 1 mg/kg SC) and 1.83 in data set [1] (antagonist 10 mg/kg SC). The “Peripheral restriction / brain penetration” value in “in vivo” is recorded as “good peripheral restriction”. In addition, the Kp at 0.167 h was 0 in the data set “in vivo” (calculated using 1 mg/kg data) and 0.048 in the data set “in vivo” (setting [2]). Further, the Kp at 0.5 h in “in vivo” (calculated using 1 mg/kg data) was 0; in “in vivo” (setting [2]), 0.035. Further, the inhibitory constant (Ki) is 3.83 nM at 5-HT2A receptor (setting [3]) and 106 nM at 5-HT2C receptor.
Regarding `COc1cccc(C(=O)Nc2ccc(OCCN3CCOCC3)c(-c3ccnn3C)c2)c1` [temanogrel], the “Peripheral restriction / brain penetration” value in the data set “in vivo” is “substantial brain penetration”. In the data set “in vivo” (setting [2]), the Kp at 0.167 h is 0.33 and the Kp at 0.5 h was 0.34.
For the molecule `CC(CNC(=N)CNc1ccccc1)Oc1cccc(Cl)c1.O=CO` (centres unmarked) [BW501C67, N-(2-(3-chlorophenoxy)propyl)-2-(phenylamino)acetimidamide formate], in data set [1], the “Attenuation of the HTR to DOPR (significance vs. vehicle)” value is recorded as “not statistically significant”. For the same molecule, the “Mean HTR (SEM)” value amounted to 5.83 in data set [1] (antagonist 0.01 mg/kg SC), 2.67 in data set [1] (antagonist 0.1 mg/kg SC), 5.33 in data set [1] (antagonist 1 mg/kg SC) and 4.33 in data set [1] (antagonist 10 mg/kg SC). Also, the “Peripheral restriction / brain penetration” value in “in vivo” is reported as “by far the most peripherally restricted compound”. Further, the Kp at 0.167 h in “in vivo” (calculated using 1 mg/kg data) was 0.0032. In addition, in “in vivo” (calculated using 1 mg/kg data), the Kp at 0.5 h was 0.0052. Also, the inhibition constant Ki at 5-HT2A receptor was 0.42 nM; at 5-HT2C receptor, 1.34 nM. Also, on 5-HT2C receptor, the “5-HT2C Ki (nM) ([3H]mesulergine)” value is on record as “high affinity”.
